Consider 18 compounds from PubChem BioAssay (NCI).

Experiment in all cases: growth of human tumour cells (NCI), 48 h
Assay [1] relates to HT29 colon.
For assay [2], the system named is SNB-75 CNS.
The test system of assay [3] is TK-10 renal.
For assay [4], the system named is OVCAR-8 ovarian.
Assay [5] has as its system COLO 205 colon.
For assay [6], the system named is UO-31 renal.
Assay [7] concerns SNB-78 CNS.
Assay [8] concerns K-562 leukemia.
For assay [9], the system named is DMS 114 small cell lung.
For assay [10], the system named is SF-295 CNS.
Assay [11] has as its system NCI/ADR-RES ovarian.

Molecules are shown by their SMILES.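 Cells were grown in 96-well plates and exposed to each compound for 48 hours at five concentrations; endpoints were interpolated linearly between bracketing concentrations, or set to the highest concentration if not reached. Here, GI50 denotes the concentration required for 50% inhibition of growth. TGI denotes the concentration required for complete inhibition of growth.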

Regarding `COc1c(Cl)c(Cl)c(OC)c2c1C(=O)C=CC2=O`, the TGI in assay [1] was 87.2 µM; in assay [2] it was 80 µM; in [3], 41.9 µM; in assay [4], 32.1 µM; in assay [5] it was 31.7 µM; in assay [6] it was 31.7 µM. In addition, the TGI in [7] was 26.7 µM; in assay [8], 64.4 µM; in assay [9], 29.7 µM; in [10] it was 48.8 µM.

`NC(CNc1ccc(O)cc1)C(=O)O` (stereo unspecified): the TGI in [1], in [2], in assay [3], in [4], in assay [5] and in [6] was above 100 µM throughout. Besides, the TGI in assay [7], in assay [8], in assay [9] and in [10] was above 100 µM each time.

As to `CCCN(CCC)c1c([N+](=O)[O-])cc(C(=O)N(C)C)cc1[N+](=O)[O-]`, the TGI was above 100 µM in assay [1]; 31.5 µM in [2]; above 100 µM in assay [3]; above 100 µM in [4]; above 100 µM in assay [5]; above 100 µM in [6]. Also, the TGI in [7], in [8], in assay [9] and in assay [10] was above 100 µM each time.

Regarding `CCOC(=O)CCC(NC(=O)c1ccc(NCc2ccc3nc(-c4ccccc4)c(Cl)nc3c2)c2ccccc12)C(=O)OCC` (stereo unspecified), the TGI in assay [1], in assay [2], in [3], in assay [4], in assay [5] and in assay [6] was above 100 µM throughout. The TGI in [11], in assay [8] and in assay [10] was above 100 µM each time.

For `OC1(c2ccc(Cl)cc2)c2ccccc2C2=NCc3ccccc3CN21` (stereo unspecified), the TGI in assay [1] is 27.8 µM; in assay [2] it was 19.4 µM; in [3], 28.9 µM; in assay [4], 24.8 µM; in assay [5], 19 µM; in assay [6] it was 22.3 µM. The TGI is 26.2 µM in [11], above 58 µM in assay [8] and 28.8 µM in assay [10].

Consider `C/C(=C/c1c(C)[nH]c(=O)[nH]c1=O)C(=O)O`, for which the TGI in assay [1], in assay [2], in assay [4], in assay [5], in assay [6] and in [11] was above 1380 µM in each case. Besides, the TGI in assay [7], in assay [8], in assay [9] and in assay [10] was above 1380 µM each time. Also, the GI50 in [4] was above 1380 µM.

As for `C=C1[C@H](OCC(C)C)[C@@H](OC(=O)C(C)CC)[C@@H](O)C(C)(C)/C=C/[C@H](C)C(=O)[C@@]2(O)C[C@H](C)[C@H](O)[C@@H]2[C@H]1OC(=O)C(C)CC` (stereo partly specified), the TGI in [1] is 9.87 µM; in assay [2], above 18.7 µM; in [3], above 19.3 µM; in assay [4] it was above 20 µM; in assay [5], above 9.67 µM; in assay [6], above 5.12 µM. Besides, the values for the TGI in [11], in [8] and in assay [10] were above 20 µM, above 13.5 µM and above 16.9 µM, respectively.

Turning to `Cc1oc2c(C)c3oc(=O)cc(C)c3cc2c1CN`, the TGI in [1] was above 100 µM; in assay [2], above 100 µM; in [3] it was 86.9 µM; in assay [4], above 100 µM; in assay [5], above 100 µM; in [6], above 100 µM. For the same compound, the TGI in assay [7], in assay [8], in assay [9] and in [10] was above 100 µM each time.

`c1ccc2nn(C3CCCCO3)nc2c1` (stereo unspecified): the TGI in assay [1], in assay [2], in assay [3], in assay [4], in assay [5] and in assay [6] was above 100 µM in each case. Besides, the TGI in assay [11], in [8] and in assay [10] was above 100 µM throughout.

As to `CC(C)C[C@H](NC(=O)[C@H](CCc1ccccc1)NC(=O)c1ccc2ccccc2n1)B(O)O`, the TGI in assay [1] was 0.144 µM; in [2], 0.175 µM; in assay [3] it was 0.407 µM; in assay [4], 0.86 µM; in assay [5], 5.18 µM; in assay [6], 0.588 µM. The TGI in assay [11] was 4.66 µM; in assay [8], above 100 µM; in [10] it was 0.305 µM.

For the compound `Cc1ccnc2sc3ccccc3c(=O)c12`, the TGI in assay [1] is 93.3 µM; in [2], 63.2 µM; in assay [3] it was 90.6 µM; in [4] it was above 100 µM; in assay [5], above 100 µM; in [6], 81.8 µM. Besides, the TGI in assay [11], in assay [8] and in assay [10] was above 100 µM each time.

With `CC1=CC(=O)/C(=C/N2CCNC2=S)C(=O)O1`, the TGI in assay [1], in assay [2], in [3], in assay [4], in assay [5] and in assay [6] was above 100 µM each time. The TGI in [11], in assay [8] and in assay [10] was above 100 µM each time.

`COC1CCC(n2c([C@@H]3CCCC(=O)N3c3ccc(F)c(F)c3)nc3cc(-c4c(C)noc4C)ccc32)CC1` (stereo partly specified): the GI50 in [1] was 2.54 µM; in assay [2] it was 0.0108 µM; in [3], 2.46 µM; in [4], 10.2 µM; in assay [5], 2.16 µM; in assay [6], 1.64 µM. Further, the GI50 was 13.5 µM in [11], 2.8 µM in assay [8] and 6.72 µM in assay [10]. Further, the TGI in [1] worked out at 25.2 µM; in assay [2], 0.961 µM; in [3] it was 12.7 µM; in [4] it was 40.8 µM; in [5], 17.8 µM; in assay [6] it was 14.5 µM. Further, the TGI in assay [11] is 30 µM; in [8], above 100 µM; in [10], 29 µM.

On to `CC12CCC(C1)C(C)(C)C2OC(=O)c1ccccc1C(=O)O` (stereo unspecified), for which the TGI in [1], in assay [2], in [3], in [4], in assay [5] and in assay [6] was above 100 µM throughout. Moreover, the TGI in [11], in assay [8] and in [10] was above 100 µM throughout.

Regarding `O=[N+]([O-])c1ccc(Cl)cc1N/N=C/c1cccs1`, the TGI in [1], in [2], in assay [3], in [4], in assay [5] and in [6] was above 100 µM each time. Further, the TGI in [11], in [8] and in assay [10] was above 100 µM in each case.

For `Cc1ccc(Nc2ccc(Nc3ccc(C)cc3S(=O)(=O)O)c3c2C(=O)c2ccccc2C3=O)c(S(=O)(=O)O)c1`, the TGI in assay [2], in [3], in assay [4], in assay [5], in [6] and in assay [7] was above 100 µM throughout. For the same compound, the TGI in assay [8] and in assay [9] was above 100 µM each time.

Consider `O=C(c1ccccc1)n1[nH]c(=O)n(-c2ccc(Cl)cc2)c1=O`, for which the TGI in assay [1], in assay [2], in [3], in assay [4], in assay [5] and in assay [6] was above 100 µM throughout. The TGI in assay [11], in assay [8] and in assay [10] was above 100 µM throughout.

Regarding `CCOC(=O)/C=C1/Nc2cc(F)c(F)cc2NC1=O`, the TGI in assay [1], in assay [2], in [3], in [4], in assay [5] and in assay [6] was above 100 µM in each case. Also, the TGI in [11], in [8] and in [10] was above 100 µM each time.
